Measurements taken from patent US10954276B2, “Enzyme-based protein separation and enrichment from soy meal, wheat meal, and other protein-rich materials derived from plant seeds, fruits and other biomass” (THE UNIVERSITY OF AKRON, priority 2012, dated 2021).
≈ marks a conversion by molar mass, not a printed value.

How the values were obtained:
bacterial growth = experiment: Preservatives against bacterial growth during soybean meal enzyme hydrolysis (pH profile); assay type: cell-based; conditions: preservative 2 g/L, 50° C., initial pH 4.8
Protocol: Systems that were considered in this section are identified on Table 16. All the systems contain 10 g of soybean meal. The enzyme hydrolysis was performed in 250 ml Erlenmeyer flasks which were agitated in orbital shaker at 250 rpm and at 50° C.
For control system, only water was added (no enzyme was added). For non-sterilized system, 10 g of soybean meal was mixed with 4 ml of enzyme broth and about 70 ml DI water. In the case of liquid autoclave system, 10 g of soybean meal was mixed with about 40 ml DI water and was autoclaved for 15 min. After autoclaving, an additional 30 ml of DI water (sterile) and 4 ml of enzyme broth were added. For vacuum autoclave systems, 10 g of soybean meal was autoclaved dry under vacuum cycle in the autoclave with no water for 15 and 45 min, respectively. After the autoclave cycle, 4 ml of enzyme broth and an additional 30 ml of DI water (sterile) was added. In case the sodium benzoate and sodium nitrite systems, 10 g of soybean meal was mixed with 2 g/L of either sodium benzoate or sodium nitrite, enzyme broth and DI water. There was no autoclaving or heating step used in these preservatives systems. The activity of the enzymes in the broth used for these experiments is shown on Table 17. The pH of all of the systems was adjusted to 4.8. Samples were taken periodically for the measurement of reducing sugars.

[1] = test system: bacterial growth present as spores in the soy flour; experiment: Sodium benzoate concentration to inhibit bacterial growth in soy flour hydrolysis; assay type: cell-based; conditions: soy flour enzyme hydrolysis
Protocol: Sodium benzoate (Na.B) was used to inhibit the bacterial growth present as spores in the soy flour that was being used for enzyme hydrolysis enrichment of the soy proteins. Different sodium benzoate concentrations were studied to determine the best concentration of sodium benzoate to inhibit bacterial growth. It was determined that Na.B level of 2 g/L was effective. The hydrolysate byproduct of enzyme hydrolysis of the soy flour having different sugars was intended to be used for arabitol production using Debaryomyces hansenii. In order for this enzyme hydrolysate to be suitable for arabitol production, however, the sodium benzoate must be removed. Accordingly, the maximum concentration that could remain in the hydrolysate that is not inhibitory for D. hansenii growth was determined by this MIC of Na.B test with D. hansenii.

[2] = test system: another strain of Debaryomyces hansenii; conditions: cited from earlier work
Debaryomyces hansenii = experiment: MIC study of benzoic acid for the growth of Debaryomyces hansenii; assay type: cell-based
Protocol: D. hansenii was inoculated first in a pre-culture medium with the following medium composition (g/L): Glucose 10, Peptone 5, Malt extract 3 and yeast extract 3. A pre-culture was performed in a 250 ml Erlenmeyer flask with 50 ml culture volume in an orbital shaker at 250 rpm and at a temperature of 30° C. After 36 hours, 5% inoculum is transferred into systems with the different benzoic acid concentrations shown in Table 11 and the medium composition shown in Table 12, each system in a 250 ml Erlenmeyer flask with a 50 ml working volume. These flasks were placed in an orbital shaker at 250 rpm and a temperature of 30° C. Samples were taken every 24 h for 3 days and the pH and cell concentrations were measured and recorded.
Cell growth was measured as optical density (OD) by measuring the absorbance of the washed cells at 610 nm with UV-vis spectrophotometer. A known amount of sample was centrifuged at 8000 rpm for 10 min and the supernatant was separated and saved for further analysis. Cell pellet was washed with DI water and centrifuge again under same conditions. Cell pellet was dispersed in water and the absorbance was measured at 610 nm.

Row | Structure (SMILES) | bacterial growth judged from pH profile (bacterial growth) | level effective to inhibit bacterial growth [1] [g/L] | MIC concentration [2] [µg/mL] | MIC (Debaryomyces hansenii; Debaryomyces hansenii, read-out: MIC against the growth of D. hansenii) [µg/mL] | Specific growth rate (μ), (Debaryomyces hansenii; benzoic acid 0.01 g/L) [h⁻¹] | effect on D. hansenii growth (Debaryomyces hansenii; benzoic acid 0.01 g/L) | Specific growth rate (μ), (Debaryomyces hansenii; benzoic acid 0.025 g/L) [h⁻¹] | Specific growth rate (μ), (Debaryomyces hansenii; benzoic acid 0.05 g/L) [h⁻¹] | Specific growth rate (μ), (Debaryomyces hansenii; benzoic acid 0.10 g/L) [h⁻¹] | Specific growth rate (μ), (Debaryomyces hansenii; benzoic acid 0.25 g/L) [h⁻¹] | cell growth measured as OD (Debaryomyces hansenii; benzoic acid 0.25 g/L)
1 | O=NO [sodium nitrite] | absence of bacterial growth |  |  |  |  |  |  |  |  |  | 
2 | O=C([O-])c1ccccc1.[Na+] [sodium benzoate, Sodium benzoate] | absence of bacterial growth | 2 |  |  |  |  |  |  |  |  | 
3 | O=C(O)c1ccccc1 [Benzoic acid] |  |  | 400 to 500 | 250 (≈ 2050 µM) | 0.089 | very little inhibitory effect | 0.082 | 0.079 | 0.075 | 0.022 | almost no cell growth
